Laboratory results from patent US10093973B2, “Polymerase compositions and methods” (LIFE TECHNOLOGIES CORPORATION, priority 2009, dated 2018).

How the values were obtained:
Assay type in all cases: biochemical
[1] = test system: Invitrogen Low Mass ladder; assay: Exonuclease activity assay; details: 2, 4 or 10 μg enzyme, 16 hours at 37° C., visual assessment of ladder bands
Protocol: An assay comparing the endogenous exonuclease activity of a reference polymerase, T7 DNA polymerase, with the exonuclease activity of a polymerase comprising the amino acid of SEQ ID NO: 7, was performed. Exonuclease activity was measured by incubating 2, 4 or 10 μg of each enzyme sample with 7.5 μL Invitrogen Low Mass ladder, (10068-013) in a 50 μL reaction containing 10 mM Tris, pH 7.5, 50 mM NaCl and 10 mM MgCl2 for 16 hours at 37° C. in an ABI 9700 PCR machine. The samples were resolved via electrophoresis on a 1.2% E-Gel (Life Technologies). The extent of exonuclease activity was estimated by visually assessing the disappearance of the bands of the Low Mass ladder, as compared to negative control reactions, to which water (“W”) or enzyme storage buffer (“SB”) was added instead of purified polymerase).

[2] = test system: AF647-C6-dG6P and Alexa Fluor 546 dye-labeled primer-template duplex; assay: Stopped-flow measurement of tpol (nucleotide incorporation kinetics); parameters: unit not given here; details: tpol = 1/kpol; 7 μM AF647-C6-dG6P, 330 nM polymerase, 100 nM template/primer duplex, 2 mM MnCl2
Protocol: In this example, the t−1 and tpol values of a Phi-29 polymerase comprising the amino acid sequence of SEQ ID NO: 1 and a modified B103 polymerase comprising the amino acid sequence of SEQ ID NO: 8 (referred to as “mB103 in the table below) and further including amino acid substitutions at various positions were measured using a stopped-flow procedure. The stopped-flow techniques for measuring tpol (1/kpol) followed the techniques described by MP Roettger (2008 Biochemistry 47:9718-9727; M. Bakhtina 2009 Biochemistry 48:3197-320).
Stopped-Flow Measurements of tpol
The template sequence (SEQ ID NO: 44) further included an Alexa Fluor 546 dye moiety bonded to the 5′ position of the template.
The kinetics of nucleotide incorporation by each polymerase was measured in an Applied Photophysics SX20 stopped-flow spectrometer by monitoring changes in fluorescence from the dye-labeled primer-template duplex complexed to enzyme, following the mixing of the enzyme-DNA complex with dye-labeled nucleotides. These dye-labeled nucleotides comprise terminal-phosphate-labeled nucleotides having an alkyl linker with a functional amine group attached to the dye, and have the general structure shown in FIG. 11. This structure includes a sugar bonded to a hexaphosphate chain at the 5′ carbon position, and to a nucleotide base (denoted as “N”). The terminal phosphate group of the hexaphosphate is linked to a 6-carbon linker, and the other end of the 6-carbon linker is attached to a dye moiety (denoted as “dye”), typically through an amide bond. In this example, the particular dye-labeled nucleotide added was a labeled nucleotide hexaphosphate comprising a guanine base at the N (base) position and an Alexa Fluor 647 (AF647) at the dye position, and is referred to herein as “AF647-C6-dG6P”.
The primer and template were annealed to form a dye-labeled primer-template duplex using standard methods. This duplex was preincubated with polymerase. The mixture included 330 nM recombinant DNA polymerase, 100 nM template/primer duplex in buffer (“reaction buffer”) comprising 50 mM Tris-HCl, pH 7.5, 50 mM NaCl, 4 mM DTT, 0.2% BSA, and 2 mM MnCl2. The dye-labeled nucleotide AF647-C6-dG6P was then added to a final concentration of 7 μM, and the resulting fluorescence was monitored over time.
The averaged (5 traces) stopped-flow fluorescence traces (>1.5 ms) were fitted with a double exponential equation (1) to extrapolate the rates of the nucleotide binding and product release, Fluorescence=A1*e^−k1*t+A2*e^−kpol*t+C (equation 1) where A1 and A2 represent corresponding fluorescence amplitudes, C is an offset constant, and k1 and kpol are the observed rate constants for the fast and slow phases of the fluorescence transition, respectively.

[3] = test system: AF647-C6-dG6P in [enzyme.DNA.nucleotide] ternary complex with dideoxy-primer/template duplex; assay: Stopped-flow measurement of t−1 (nucleotide dissociation from ternary complex); parameters: unit not given here; details: t−1 = 1/k−1; ternary complex with 7 μM AF647-C6-dG6P chased with 50 μM non-labeled nucleotide, 2 mM MnCl2
Protocol: Stopped-Flow Measurements of t−1
The stopped-flow techniques for measuring t−1 ([…]) followed the techniques described by M. Bakhtina (2009 Biochemistry 48:3197-3208).
The rate of the nucleotide dissociation ([…]) from the ternary complex of [enzyme.DNA.nucleotide] was measured in an Applied Photophysics SX20 stopped-flow spectrometer by monitoring changes […] a duplex Alexa fluor 546 dye-labeled-DNA template following the mixing of the [enzyme.DNA.labeled nucleotide] ternary complex with 50 μM cognate non-labeled deoxynucleoside triphosphate in a buffer containing 50 mM Tris-HCl (pH 7.5), 50 mM NaCl, 4 mM DTT, 0.2% BSA, and 2 mM MnCl2.
The ternary complexes were prepared using: 330 nM polymerase, 100 nM template/primer duplex, and 7 μM terminal phosphate-labeled nucleotides (AF647-C6-dG6P).
The averaged stopped-flow fluorescence traces (>1.5 msec) were fitted with a single exponential equation (2) to extrapolate the rate of the nucleotide dissociation (k−1) from the [enzyme.DNA.nucleotide] ternary complex. Fluorescence=A1*e^−k−1*t+C (equation 2) where A1 represents the corresponding fluorescence amplitude, C is an offset constant, and k−1 and the observed rate constants for the fluorescence transition.

[4] = test system: hairpin-template, test nanoparticle; assay: Nanoparticle tolerance assay (primer extension with and without test nanoparticle); details: 100 nM polymerase, 100 nM nanoparticle, 23° C.
Protocol: The nanoparticle tolerance of exemplary modified and reference polymerases was measured and compared. The nucleotide incorporation activity of an exemplary modified polymerase comprising the amino acid sequence of SEQ ID NO: 19 and further comprising the amino acid substitution D175A was measured both in the absence and presence of equimolar amounts of a test nanoparticle. The results were compared to those of an exemplary reference Phi-29 polymerase comprising the amino acid sequence of SEQ ID NO: 20.
Primer extension activity was measured using an assay wherein free pyrophosphate released as a result of extension of a primer:template duplex is detected as a fluorescent product. […] The resulting fluorescence emissions were monitored as a function of time using a plate reader (Molecular Devices, SpectraMax M5). Reactions without nucleotides were also monitored as negative controls. Reactions were monitored for 20 minutes or until the samples reached saturation.
Exemplary results are depicted in FIG. 5, which provides a graph of relative fluorescence observed in each sample (RFU, arbitrary units, Y axis) against time (seconds, X axis). […] Primer extension activity was measured as the average slope of the curve obtained by plotting fluorescence (RFU) vs. time (seconds, X axis) between the zero time point and at 5 minutes. […]

| t−1 [3] | Substance | exonuclease activity [1] | tpol [2] | nanoparticle tolerance [4] [%] | loss in primer extension activity in the presence of equimolar amounts of the test nanoparticle ([4]; slope zero to 5 minutes) [%] |
| --- | --- | --- | --- | --- | --- |
| 13 | mB103 + D507G: modified B103 polymerase of SEQ ID NO: 8 with substitution D507G | – | 11 | – | – |
| 16 | mB103 + D507H: modified B103 polymerase of SEQ ID NO: 8 with substitution D507H | – | 7 | – | – |
| 17 | mB103 + E371R: modified B103 polymerase of SEQ ID NO: 8 with substitution E371R | – | 11 | – | – |
| 43 | mB103 + H370R: modified B103 polymerase of SEQ ID NO: 8 with substitution H370R | – | 17 | – | – |
| 12 | mB103 + H370Y: modified B103 polymerase of SEQ ID NO: 8 with substitution H370Y | – | 15 | – | – |
| 20 | mB103 + K509Y: modified B103 polymerase of SEQ ID NO: 8 with substitution K509Y | – | 10 | – | – |

Further lines, the substance ahead of its results:

| Substance | t−1 [3] | exonuclease activity [1] | tpol [2] | nanoparticle tolerance [4] [%] | loss in primer extension activity in the presence of equimolar amounts of the test nanoparticle ([4]; slope zero to 5 minutes) [%] |
| --- | --- | --- | --- | --- | --- |
| SEQ ID NO: 7: B103 polymerase variant with substitutions F383L and D384N | – | comparable levels of exonuclease activity | – | – | – |
| T7 DNA polymerase: reference polymerase, positive control for exonuclease activity [reference compound] | – | comparable levels of exonuclease activity | – | – | – |
| mB103 + E371Y: modified B103 polymerase of SEQ ID NO: 8 with substitution E371Y | 7 | – | 11 | – | – |
| reference Phi-29 polymerase: reference Phi-29 polymerase of Example 5; SEQ ID NO: 20 or SEQ ID NO: 1 with N62D [reference compound] | – | – | – | 50 | 50 |
